The values that follow are results of earlier work, collected in patent publication US4978531A, “Clebopride transdermal patch” (Fordonal, S.A., priority 1987, dated 1990).

The conditions of the data set: in vivo.

Turning to `COc1cc(N)c(Cl)cc1C(=O)NC1CCN(Cc2ccccc2)CC1` [clebopride], the biological half-life entry is listed as “about 1.5 hours”.
